Reference: patent US6605424B1, “Method of detecting inhibitors of agonist-specific desensitization” (Duke University, priority 1989, dated 2003)

How the values were obtained:
[1] = system: permeabilized A431 cells; experiment: Accumulation of [32P]cAMP in permeabilized cells; format: cell-based, human; settings: up to 1 μM; presence or absence of isoproterenol
[2] = target: T1, βAR kinase (Bos taurus, UniProt P21146); experiment: Phosphorylation of rhodopsin (urea-treated rod outer segments) by βAR kinase; format: biochemical, bovine
T1 construct: βAR kinase was purified from bovine cerebral cortex; from tissue; host or cells: bovine cerebral cortex
T1 sequence (P21146 1-689): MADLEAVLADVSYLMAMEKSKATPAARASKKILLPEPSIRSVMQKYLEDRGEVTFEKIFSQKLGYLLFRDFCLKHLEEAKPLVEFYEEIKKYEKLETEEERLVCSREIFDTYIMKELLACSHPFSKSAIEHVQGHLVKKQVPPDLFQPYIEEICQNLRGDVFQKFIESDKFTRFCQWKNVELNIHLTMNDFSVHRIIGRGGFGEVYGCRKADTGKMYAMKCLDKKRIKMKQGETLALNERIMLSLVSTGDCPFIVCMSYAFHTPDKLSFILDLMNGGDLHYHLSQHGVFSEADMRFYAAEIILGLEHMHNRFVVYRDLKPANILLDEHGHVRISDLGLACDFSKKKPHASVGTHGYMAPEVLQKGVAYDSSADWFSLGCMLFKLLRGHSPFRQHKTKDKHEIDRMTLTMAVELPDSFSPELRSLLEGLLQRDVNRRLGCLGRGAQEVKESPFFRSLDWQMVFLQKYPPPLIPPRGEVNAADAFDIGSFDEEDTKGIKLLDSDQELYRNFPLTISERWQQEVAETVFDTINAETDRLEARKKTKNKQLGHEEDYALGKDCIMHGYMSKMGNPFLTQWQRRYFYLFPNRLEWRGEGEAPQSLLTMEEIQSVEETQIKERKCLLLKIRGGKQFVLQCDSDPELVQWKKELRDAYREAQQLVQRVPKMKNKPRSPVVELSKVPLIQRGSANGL

[3] = target: T1, βAR kinase; experiment: as above; format: biochemical, bovine; remark: listed apart in the source
Description: βAR kinase was purified from bovine cerebral cortex by modification of procedure of Benovic et al (J. Biol. Chem. (1987) 262:9026-9032). Briefly, 250 g of bovine cerebral cortex were homogenized with a Brinkmann tissue disrupter and centrifuged (40,000×g, 30 min). The supernatant was then precipitated with 13-26% ammonium sulfate. This material was initially chromatographed on a Ultrogel AcA34 column equilibrated with 5 mM Tris-HCl, pH 7.5, 2 mM EDTA, 10 μg/ml leupeptin, 5 μg/ml pepstatin, 10 μg/ml benzamidine, 0.2 mM phenylmethylsulfonyl fluoride (buffer A). The peak activity was diluted with an equal volume of buffer A containing 0.04% Triton X-100 before being applied to a DEAE-Sephacel column. Elution was accomplished with a 0-80 mM NaCl gradient in buffer A containing 0.02% Triton X-100. The peak activity was then applied to a CM-Fractogel column and eluted with a 0-100 mM NaCl gradient in buffer A containing 0.02% Triton X-100. The purified kinase is stable at 4° C. for several months. For these studies the βAR kinase preparations were >75% pure.
Rod outer segments were prepared from bovine retinas by stepwise sucrose gradient centrifugation (Wilden et al Biochemistry (1982) 21:3014-3022). Rhodopsin kinase-free rod outer segments were prepared by treatment with 5 M urea (Shichi et al J. Biol. Chem. (1978) 253:7040-7046) and consisted of ˜95% rhodopsin, as assessed by Coomassie Blue staining of sodium dodecyl sulfate-polyacrylamide gels.
Urea-treated rod outer segments were phosphorylated with βAR kinase as follows. Urea-treated rod outer segments (˜4 μg of rhodopsin) were incubated with βAR kinase (˜0.1 μg) for 10-15 min at 30° C. in the presence of 40 mM Tris-HCl, pH 7.4, 10 mM NaCl, 5 mM MgCl2, 1.5 mM EDTA, and 65 μM ATP (˜1 cpm/fmol) (total reaction volume was 40 μl). Reactions were stopped by the addition of 40 μl of sodium dodecyl sulfate sample buffer (see below) followed by sodium dodecyl sulfate-polyacrylamide gel electrophoresis. After autoradiography, the phosphorylated rhodopsin bands were excised and counted.
Sodium dodecyl sulfate-polyacrylamide gel electrophoresis was performed by the method of Laemmli (Nature (1970) 227:680-685) using 10% homogeneous polyacrylamide slab gels. Sample buffer contained 8% sodium dodecyl sulfate, 10% glycerol, 5% 3-mercaptoethanol, 25 mM Tris-HCl, pH 6.5, and 0.003% bromphenol blue. After electrophoresis, gels were dried with a Bio-Rad gel dryer prior to autoradiography.

[4] = target: T1, βAR kinase; experiment: βAR kinase inhibition with the βAR as substrate (Example I, data not shown); format: biochemical, bovine
Excerpt: βAR kinase phosphorylates the β2AR, the α2-adrenergic receptor, and rhodopsin in a stimulus-dependent fashion. Rhodopsin was utilized as the substrate in these experiments because of its ease of isolation. However, the inhibitory effects of polyanions observed with βAR kinase-catalyzed phosphorylation of rhodopsin have also been observed using reconstituted β2AR as the substrate.

type of inhibition with respect to ATP ([2]; ATP 33 to 100 μM): mixed type inhibitor
type of inhibition with respect to rhodopsin ([2]; rhodopsin 3 to 20 μM): competitive inhibitor
Hill coefficient of inhibition ([3]; data of FIG. 1): ~2
IC50 ([3]; read-out: IC50 (concentration of compound which gave 50% inhibition of βAR kinase), rhodopsin as substrate): 150 nM
IC50 (concentration of compound which gave 50% inhibition of βAR kinase) ([3]; rhodopsin as substrate, mean ± S.E.): 0.77 ± 0.10 µg/mL
IC50 [4]: ~30 nM
Substance: heparin
effect on [32P]cAMP formation [1]: did not reduce
